# According to patent publication US20230022724A1, “NOVEL IMIDAZOPYRAZINE DERIVATIVES” (Hoffmann-La Roche Inc., priority 2018, published 2023):
# Structures can show the parent of a compound that is named as a salt.
# System: Acinetobacter baumannii ATCC17978
# Test: Antimicrobial susceptibility testing: 90% growth inhibitory concentration (IC90) determination
# Type: cell-based
# Conditions: 90% growth inhibitory concentration, Acinetobacter baumannii ATCC17978, Iso-Sensitest broth, OD 600 nm over 16 h; read-out: ATCC17978 IC90
# Method in brief: (§1)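 Compounds in twofold series (e.g. 50 to 0.097 μM final) in Iso-Sensitest broth, inoculated at ~5×10^5 CFU/ml, incubated at 35±2° C. OD600 was read every 20 minutes for 16 h. IC90 was derived from growth inhibition during logarithmic phase.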
row,Compound,IC90 [nM]
1,"(R)-1-(2-chloro-4-((3-(3-fluoro-4-methoxyphenyl)imidazo[1,2-a]pyrazin-8-yl)amino)benzoyl)-N-(pyrrolidin-3-yl)piperidin-4-carboxamide hydrochlroide [Example 17]",220

# Same assay, conditions: Acinetobacter baumannii, ATCC17978, 16 h, 90% growth inhibitory concentration, Acinetobacter baumannii ATCC17978, Iso-Sensitest broth, OD 600 nm over 16 h; read-out: ATCC17978 IC90
row,Compound,IC90 [nM]
1,"COc1ccc(-c2cnc3c(Nc4ccc(C(=O)N5CCC(O)(CC(=O)N(C)C)CC5)c(Cl)c4)nccn23)cc1F [Example 106, 2-(1-(2-chloro-4-((3-(3-fluoro-4-methoxyphenyl)imidazo[1,2-a]pyrazin-8-yl)amino)benzoyl)-4-hydroxypiperidin-4-yl)-N,N-dimethylacetamide]",540
2,"COc1ccc(-c2cnc3c(Nc4ccc(C(=O)N5CCC(C(=O)NC[C@H](O)[C@@H](O)[C@H](O)[C@H](O)CO)CC5)c(Cl)c4)nccn23)cc1F [Example 107, 1-(2-chloro-4-((3-(3-fluoro-4-methoxyphenyl)imidazo[1,2-a]pyrazin-8-yl)amino)benzoyl)-N-((2S,3R,4R,5R)-2,3,4,5,6-pentahydroxyhexyl)piperidine-4-carboxamide]",260

# System: Acinetobacter baumannii ATCC17961
# Test: as above
# Type: cell-based
# Conditions: Acinetobacter baumannii ATCC17961, Iso-Sensitest broth, OD 600 nm over 16 h
# Method in brief: as §1
row,Compound,IC90 [nM]
1,"N#CCOc1ccc(-c2cnc3c(Nc4ccc(C(=O)N5CCN(C(=O)[C@@H]6C[C@@H](O)CN6)CC5)c(Cl)c4)nccn23)c(Cl)c1F [Example 33, 2-[3-chloro-4-[8-[3-chloro-4-[4-[(2S,4R)-4-hydroxypyrrolidine-2-carbonyl]piperazine-1-carbonyl]anilino]imidazo[1,2-a]pyrazin-3-yl]-2-fluoro-phenoxy]acetonitrile Formate]",33.9
2,"COc1ccc(-c2cnc3c(Nc4ccc(C(=O)N5CCN(C(=O)[C@@H]6C[C@@H](O)CN6)CC5)c(Cl)c4)nccn23)c(F)c1F [Example 35, [2-chloro-4-[[3-(2,3-difluoro-4-methoxy-phenyl)imidazo[1,2-a]pyrazin-8-yl]amino]phenyl]-[4-[(2S,4R)-4-hydroxypyrrolidine-2-carbonyl]piperazin-1-yl]methanone formate]",41.2
3,"COc1ccc(-c2cnc3c(Nc4cc(F)c(C(=O)N5CCN(C(=O)[C@@H]6C[C@@H](O)CN6)CC5)c(F)c4)nccn23)c(F)c1F [Example 49, (4-(4-((3-(2,3-difluoro-4-methoxyphenyl)imidazo[1,2-a]pyrazin-8-yl)amio)-2,6-difluorobenzoyl)piperazin-1-yl)((2S,4R)-4-hydroxypyrrolidin-2-yl)methanone dihydrochloride]",72.2
4,"COc1ccc(-c2cnc3c(Nc4cc(F)c(C(=O)N5CCN(C(=O)[C@@H]6C[C@@H](O)CN6)CC5)c(Cl)c4)nccn23)c(F)c1F [Example 50, (4-(2-chloro-4-((3-(2,3-difluoro-4-methoxyphenyl)imidazo[1,2-a]pyrazin-8-yl)amino)-6-fluorobenzoyl)piperazin-1-yl)((2S,4R)-4-hydroxypyrrolidin-2-yl)methanone dihydrochloride]",82.1
5,"N#CCOc1ccc(-c2cnc3c(Nc4ccc(C(=O)N5CCN(C(=O)CN6CCC(C(=O)O)C6)CC5)c(Cl)c4)nccn23)c(F)c1F (centres unmarked) [Example 108, 1-(2-(4-(2-chloro-4-((3-(4-(cyanomethoxy)-2,3-difluorophenyl)imidazo[1,2-a]pyrazin-8-yl)amino)benzoyl)piperazin-1-yl)-2-oxoethyl)pyrrolidine-3-carboxylic acid trifluoroacetate]",350
6,"COc1ccc(-c2cnc3c(Nc4cc(F)c(C(=O)N5CCN(C(=O)[C@@H]6C[C@@H](O)CN6)CC5)c(Br)c4)nccn23)c(F)c1F [Example 109, (4-(2-bromo-4-((3-(2,3-difluoro-4-methoxyphenyl)imidazo[1,2-a]pyrazin-8-yl)amino)-6-fluorobenzoyl)piperazin-1-yl)((2S,4R)-4-hydroxypyrrolidin-2-yl)methanone dihydrochloride]",69
7,"CNCC1(O)CCN(C(=O)c2ccc(Nc3nccn4c(-c5ccc(OC)c(F)c5)cnc34)cc2Cl)CC1 [Example 110, (2-chloro-4-((3-(3-fluoro-4-methoxyphenyl)imidazo[1,2-a]pyrazin-8-yl)amino)phenyl)(4-hydroxy-4-((methylamino)methyl)piperidin-1-yl)methanone]",80
8,"CNCC1(O)CCN(C(=O)c2ccc(Nc3nccn4c(-c5ccc(OC)c(F)c5F)cnc34)cc2Cl)CC1 [Example 111, (2-chloro-4-((3-(2,3-difluoro-4-methoxyphenyl)imidazo[1,2-a]pyrazin-8-yl)amino)phenyl)(4-hydroxy-4-((methylamino)methyl)piperidin-1-yl)methanone]",68
9,"O=C(c1ccc(Nc2nccn3c(-c4ccc(OCF)c(F)c4F)cnc23)cc1Cl)N1CCN(C(=O)[C@@H]2C[C@@H](O)CN2)CC1 [Example 112, [2-chloro-4-[[3-[2,3-difluoro-4-(fluoromethoxy)phenyl]imidazo [1,2-a]pyrazin-8-yl]amino]phenyl]-[4-[(2S,4R)-4-hydroxypyrrolidine-2-carbonyl]piperazin-1-yl]methanone trifluoroacetate]",22
10,"O=C(c1ccc(Nc2nccn3c(-c4ccc(OC(F)F)c(F)c4F)cnc23)cc1Cl)N1CCN(C(=O)[C@@H]2C[C@@H](O)CN2)CC1 [Example 113, [2-chloro-4-[[3-[4-(difluoromethoxy)-2,3-difluoro-phenyl]imidazo[1,2-a]pyrazin-8-yl]amino]phenyl]-[4-[(2S,4R)-4-hydroxypyrrolidine-2-carbonyl]piperazin-1-yl]methanone formate]",22
11,"O=C(c1ccc(Nc2nccn3c(-c4ccc(OC(F)F)c(F)c4F)cnc23)cc1F)N1CCN(C(=O)C2CCN(CC3CCNC3)CC2)CC1 (centres unmarked) [Example 114, (4-(4-((3-(4-(difluoromethoxy)-2,3-difluorophenyl)imidazo[1,2-a]pyrazin-8-yl)amino)-2-fluorobenzoyl)piperazin-1-yl)(1-(pyrrolidin-3-ylmethyl)piperidin-4-yl)methanone bis(2,2,2-trifluoroacetate)]",56
